Experimental data as given in US6267945A, “Farnesol-related calcium channel blockers” (NeuroMed Technologies, Inc., priority 1998, dated 2001).
Read-outs that look alike come from different tables or passages of the source.

How the values were obtained:
[1] = biological target: T1, N-type calcium channel (α1B + α2 + β1b) (Rattus norvegicus, UniProt Q02294); assay: Open-channel block of N-type calcium channels, whole cell patch clamp, holding potential -100 mV; format: cell-based; details: for inhibition at 10 µM: read-out: Open/Resting Block (determined at 10 μM); for normalized peak height: -100 mV to +20 mV
T1 construct: expressed in transfected cells; host or cells: HEK293 cells stably expressing, or HEK TSA 201 cells transiently transfected with, α1B + α2 + β1b
T1 sequence (Q02294 whole entry): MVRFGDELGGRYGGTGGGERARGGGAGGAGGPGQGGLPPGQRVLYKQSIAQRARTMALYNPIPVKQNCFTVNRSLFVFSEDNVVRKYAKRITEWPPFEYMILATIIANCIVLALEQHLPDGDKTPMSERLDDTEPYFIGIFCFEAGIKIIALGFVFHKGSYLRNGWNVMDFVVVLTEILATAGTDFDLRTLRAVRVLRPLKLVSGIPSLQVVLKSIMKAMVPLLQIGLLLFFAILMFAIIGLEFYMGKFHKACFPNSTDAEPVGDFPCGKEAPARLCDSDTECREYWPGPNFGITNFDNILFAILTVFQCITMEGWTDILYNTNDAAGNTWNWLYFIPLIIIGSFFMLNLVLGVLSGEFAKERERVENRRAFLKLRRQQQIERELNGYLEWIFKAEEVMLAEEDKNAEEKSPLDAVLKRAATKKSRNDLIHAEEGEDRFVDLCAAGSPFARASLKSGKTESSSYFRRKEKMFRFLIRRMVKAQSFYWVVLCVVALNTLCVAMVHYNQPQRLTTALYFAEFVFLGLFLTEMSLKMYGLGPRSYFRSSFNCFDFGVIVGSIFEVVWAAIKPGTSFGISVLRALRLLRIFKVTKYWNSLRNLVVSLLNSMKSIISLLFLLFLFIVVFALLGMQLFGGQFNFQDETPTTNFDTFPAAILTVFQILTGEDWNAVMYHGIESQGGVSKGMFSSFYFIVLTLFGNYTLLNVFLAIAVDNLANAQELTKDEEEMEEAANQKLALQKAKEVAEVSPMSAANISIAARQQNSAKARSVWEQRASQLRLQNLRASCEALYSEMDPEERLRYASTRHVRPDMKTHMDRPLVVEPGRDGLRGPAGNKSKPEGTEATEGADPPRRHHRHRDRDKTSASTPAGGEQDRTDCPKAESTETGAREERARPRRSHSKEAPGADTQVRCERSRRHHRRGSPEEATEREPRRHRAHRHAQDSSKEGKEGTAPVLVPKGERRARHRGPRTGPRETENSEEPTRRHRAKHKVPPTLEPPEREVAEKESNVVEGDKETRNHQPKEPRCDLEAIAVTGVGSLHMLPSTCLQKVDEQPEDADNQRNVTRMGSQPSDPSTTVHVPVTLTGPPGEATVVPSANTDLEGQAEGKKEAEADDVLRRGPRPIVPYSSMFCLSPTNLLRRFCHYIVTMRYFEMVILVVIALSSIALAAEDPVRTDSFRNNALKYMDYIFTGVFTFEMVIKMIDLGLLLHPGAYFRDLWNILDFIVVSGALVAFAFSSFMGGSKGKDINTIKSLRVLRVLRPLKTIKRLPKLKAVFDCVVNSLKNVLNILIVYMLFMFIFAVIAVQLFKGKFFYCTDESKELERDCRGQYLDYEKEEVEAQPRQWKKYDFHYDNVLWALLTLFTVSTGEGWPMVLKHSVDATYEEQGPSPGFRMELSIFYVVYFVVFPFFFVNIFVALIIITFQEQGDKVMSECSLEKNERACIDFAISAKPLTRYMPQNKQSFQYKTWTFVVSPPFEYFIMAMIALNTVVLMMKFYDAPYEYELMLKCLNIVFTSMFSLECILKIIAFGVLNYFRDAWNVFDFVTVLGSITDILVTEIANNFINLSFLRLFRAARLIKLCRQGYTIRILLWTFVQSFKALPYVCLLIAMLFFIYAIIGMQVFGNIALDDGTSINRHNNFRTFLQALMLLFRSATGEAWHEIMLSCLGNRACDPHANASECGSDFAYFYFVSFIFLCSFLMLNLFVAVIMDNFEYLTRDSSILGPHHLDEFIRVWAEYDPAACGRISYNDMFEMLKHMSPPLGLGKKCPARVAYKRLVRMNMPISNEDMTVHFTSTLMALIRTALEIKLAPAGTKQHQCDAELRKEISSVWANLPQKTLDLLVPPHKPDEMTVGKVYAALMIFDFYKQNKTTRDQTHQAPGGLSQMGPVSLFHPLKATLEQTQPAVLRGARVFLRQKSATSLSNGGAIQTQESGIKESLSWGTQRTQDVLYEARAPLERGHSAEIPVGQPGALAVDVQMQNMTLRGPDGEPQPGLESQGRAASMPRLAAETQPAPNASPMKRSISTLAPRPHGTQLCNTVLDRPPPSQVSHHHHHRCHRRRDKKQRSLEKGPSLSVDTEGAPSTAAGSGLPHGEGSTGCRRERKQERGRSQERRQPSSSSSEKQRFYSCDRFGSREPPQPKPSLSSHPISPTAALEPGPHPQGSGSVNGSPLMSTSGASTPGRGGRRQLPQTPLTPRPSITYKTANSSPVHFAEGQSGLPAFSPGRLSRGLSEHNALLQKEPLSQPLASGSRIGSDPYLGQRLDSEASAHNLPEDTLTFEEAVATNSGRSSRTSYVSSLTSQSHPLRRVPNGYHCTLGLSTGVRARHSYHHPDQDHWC
T1 sequence (P54290 25-944 partner limits assumed): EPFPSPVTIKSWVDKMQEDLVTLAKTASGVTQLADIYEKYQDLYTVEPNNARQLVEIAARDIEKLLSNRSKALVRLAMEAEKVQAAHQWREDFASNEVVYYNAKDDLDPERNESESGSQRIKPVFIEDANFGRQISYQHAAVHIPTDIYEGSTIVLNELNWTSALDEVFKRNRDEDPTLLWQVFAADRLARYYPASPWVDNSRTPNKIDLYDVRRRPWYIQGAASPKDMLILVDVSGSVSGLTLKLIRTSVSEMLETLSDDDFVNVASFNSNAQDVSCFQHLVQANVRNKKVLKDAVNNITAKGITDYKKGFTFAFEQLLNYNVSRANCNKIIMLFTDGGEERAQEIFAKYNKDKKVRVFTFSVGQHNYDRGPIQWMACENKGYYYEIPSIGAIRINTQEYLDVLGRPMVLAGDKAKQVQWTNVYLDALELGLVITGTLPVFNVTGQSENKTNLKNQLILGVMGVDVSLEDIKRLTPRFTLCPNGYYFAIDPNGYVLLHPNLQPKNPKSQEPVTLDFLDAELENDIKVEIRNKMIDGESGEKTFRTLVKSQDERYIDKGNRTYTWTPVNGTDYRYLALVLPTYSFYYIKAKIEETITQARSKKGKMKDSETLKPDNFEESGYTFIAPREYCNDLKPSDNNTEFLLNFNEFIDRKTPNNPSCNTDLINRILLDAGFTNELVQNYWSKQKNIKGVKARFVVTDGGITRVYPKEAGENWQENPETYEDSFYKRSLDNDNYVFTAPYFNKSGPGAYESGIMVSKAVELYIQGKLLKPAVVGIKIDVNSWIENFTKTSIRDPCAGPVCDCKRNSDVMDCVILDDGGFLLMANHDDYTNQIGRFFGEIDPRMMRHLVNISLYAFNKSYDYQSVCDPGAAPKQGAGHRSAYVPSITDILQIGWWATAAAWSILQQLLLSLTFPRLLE
T1 sequence (P54290 945-1091 partner limits assumed): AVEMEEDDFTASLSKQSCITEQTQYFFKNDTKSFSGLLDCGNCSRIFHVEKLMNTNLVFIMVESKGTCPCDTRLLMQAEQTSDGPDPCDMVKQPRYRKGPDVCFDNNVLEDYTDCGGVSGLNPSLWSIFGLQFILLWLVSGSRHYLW
T1 sequence (P54283 whole entry partner): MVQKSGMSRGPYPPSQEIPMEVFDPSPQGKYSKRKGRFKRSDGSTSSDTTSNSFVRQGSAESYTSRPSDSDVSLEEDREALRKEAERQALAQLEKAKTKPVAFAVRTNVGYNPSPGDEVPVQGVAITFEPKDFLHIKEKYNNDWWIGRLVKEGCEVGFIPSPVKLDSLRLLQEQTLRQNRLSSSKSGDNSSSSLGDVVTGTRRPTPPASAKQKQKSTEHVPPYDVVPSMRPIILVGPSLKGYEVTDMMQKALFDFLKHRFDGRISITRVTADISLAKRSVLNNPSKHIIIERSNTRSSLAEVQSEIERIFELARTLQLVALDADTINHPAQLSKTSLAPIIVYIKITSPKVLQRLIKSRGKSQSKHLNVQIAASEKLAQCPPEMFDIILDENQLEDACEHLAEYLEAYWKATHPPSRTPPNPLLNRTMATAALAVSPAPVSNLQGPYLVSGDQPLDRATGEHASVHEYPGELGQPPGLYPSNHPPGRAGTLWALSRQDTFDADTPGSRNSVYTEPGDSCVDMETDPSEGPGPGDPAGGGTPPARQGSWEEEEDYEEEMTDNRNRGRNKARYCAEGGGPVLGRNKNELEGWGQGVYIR
Source text: (§1) There are two distinguishable types of calcium channel inhibition. […] A second type of block is referred to herein as "inactivation inhibition." When maintained at less negative resting potentials, such as the physiologically important potential of -70 mV, a certain percentage of the receptor channels may undergo conformational change, rendering them incapable of being activated--i.e., opened--by the abrupt depolarization. Thus, the peak current due to calcium ion flow will be diminished not because the open channel is blocked, but because some of the channels are unavailable for opening (inactivated). "Inactivation" type inhibitors increase the percentage of receptors that are inactivated.
(§2) As described above, a more definitive assay can be used to distinguish inhibitors of calcium flow which operate as open channel blockers, as opposed to those that operate by promoting inactivation of the channel. The methods to distinguish these types of inhibition are more particularly described in the examples below. In general, open-channel blockers are assessed by measuring the level of peak current when deploarization is imposed on a background resting potential of about -100 mV in the presence and absence of the candidate compound. Successful open-channel blockers will reduce the peak current observed and accelerate the decay of this current. Compounds that are inactivated channel blockers are determined by their ability to shift the voltage dependence of inactivation towards more negative potentials. This is also reflected in their ability to reduce peak currents at more depolarized holding potentials(e.g., -70 mV).
(§3) Human embryonic kidney TSA 201 cells were grown in standard DMEM medium, supplemented with 10% fetal bovine serum and 0.4 mg/ml neomycin. The cells were grown to 80% confluency, split with trypsin EDTA and plated on glass coverslips at 10% confluency 12 hours prior to transfection. Immediately prior to transfection, the medium was replaced and the cells were transiently transfected with cDNAs encoding calcium channel α1B, β1b and α2 subunits (at a 1:1:1 molar ratio) using a standard calcium phosphate protocol. After 12 hours, the medium was replaced with fresh DMEM and the cells were allowed to recover for 12 hours. Subsequently the cells were incubated at 28° C. in 5% CO2 for 1-2 days prior to recording. Human embryonic kidney cells stably expressing N-type α1B +α2 +β1b were maintained and plated for electrophysiological recordings as described by Zamponi, G. W. et al., Nature (1997) 385:442-446.
Immediately prior to recording, individual cover slips were transferred to a 3 cm culture dish containing an external recording solution. The external recording solution was 20 mM BaCl2, 1 mM MgCl2, 10 mM HEPES, 40 mM TEACl, 10 mM glucose, 65 mM CsCl (pH 7.2) or 5 mM BaCl2, 1 mM MgCl2, 10 mM HEPES, 40 mM TEACl, 10 mM glucose, 87.5 mM CsCl (pH 7.2). […] The internal pipette solution is 105 mM CsCl, 25 mM TEACl, 1 mM CaCl2, 11 mM EGTA, 10 mM HEPES (pH 7.2). Whole cell patch clamp experiments were performed using an Axopatch 200B amplifier (Axon Instruments, Burlingame, Calif.) linked to an IBM compatible personal computer equipped with pCLAMP 6.0 software. Currents were typically elicited from a holding potential of -100 mV to various test potentials. The compounds to be tested were prepared as stock solutions in ethanol and diluted into the recording solution at the appropriate final concentrations, and perfused directly onto the cells using a gravity driven microperfusion system. At the applicable concentrations, ethanol by itself had no effect on calcium channel activity. Data were filtered at 1 kHz and recorded directly on the hard drive of a personal computer. The data were analyzed using ClampFit (Axon Instruments). Curve fitting was carried out in Sigmaplot 4.0 (Jandel Scientific). Steady state inactivation curves were fitted with a Boltzman equation, […]

[2] = biological target: T1, N-type calcium channel (α1B + α2 + β1b); assay: Inactivation of N-type calcium channels (steady state inactivation, shift in V0.5), whole cell patch clamp; format: cell-based
Source text: as §1, §2, §3
Immediately prior to recording, individual cover slips were transferred to a 3 cm culture dish containing an external recording solution. The external recording solution was 20 mM BaCl2, 1 mM MgCl2, 10 mM HEPES, 40 mM TEACl, 10 mM glucose, 65 mM CsCl (pH 7.2) or 5 mM BaCl2, 1 mM MgCl2, 10 mM HEPES, 40 mM TEACl, 10 mM glucose, 87.5 mM CsCl (pH 7.2). […] The internal pipette solution is 105 mM CsCl, 25 mM TEACl, 1 mM CaCl2, 11 mM EGTA, 10 mM HEPES (pH 7.2). Whole cell patch clamp experiments were performed using an Axopatch 200B amplifier (Axon Instruments, Burlingame, Calif.) linked to an IBM compatible personal computer equipped with pCLAMP 6.0 software. Currents were typically elicited from a holding potential of -100 mV to various test potentials. The compounds to be tested were prepared as stock solutions in ethanol and diluted into the recording solution at the appropriate final concentrations, and perfused directly onto the cells using a gravity driven microperfusion system. At the applicable concentrations, ethanol by itself had no effect on calcium channel activity. Data were filtered at 1 kHz and recorded directly on the hard drive of a personal computer. The data were analyzed using ClampFit (Axon Instruments). Curve fitting was carried out in Sigmaplot 4.0 (Jandel Scientific). Steady state inactivation curves were fitted with a Boltzman equation,
Ipeak(normalized) =1/(1+exp((V-Vh)Z/25.6)) […]

[3] = system: L-type calcium channel (α1C); assay: Inactivation effect on L-type channels, resting potential -70 mV; format: cell-based; details: 250 nM farnesol
Protocol: as §3
(§4) For some experiments, cells were prepared wherein the α1B unit was replaced by α1A (P/Q type) α1C (type L) or α1E (undefined). α1B represents N-type.
(§5) Immediately prior to recording, individual cover slips were transferred to a 3 cm culture dish containing an external recording solution. […] Data were filtered at 1 kHz and recorded directly on the hard drive of a personal computer. The data were analyzed using ClampFit (Axon Instruments). […]

α1E calcium channel [4] = assay: Open-channel block of α1E channels, resting potential -100 mV; format: cell-based; details: 25 μM farnesol
Protocol: as §3, §4, §5

α1E calcium channel [5] = assay: Inactivation effect on α1E channels, resting potential -70 mV; format: cell-based; details: 250 nM farnesol
Protocol: as §3, §4, §5

[6] = system: P/Q type calcium channel (α1A); assay: Inactivation effect on P/Q-type channels, resting potential -70 mV; format: cell-based; details: 250 nM farnesol
Protocol: as §3, §4, §5

[7] = system: P/Q type calcium channel (α1A); assay: Open-channel block of P/Q-type channels, resting potential -100 mV; format: cell-based; details: 25 μM farnesol
Protocol: as §3, §4, §5

L-type receptors = details: micromolar range; cited from earlier work
[8] = system: L-type calcium channel (α1C); assay: Open-channel block of L-type channels, resting potential -100 mV; format: cell-based; details: 25 μM farnesol
Protocol: as §3, §4, §5

[9] = corrected for control inactivation rate, linear fit

Q: What does the source list for `CCCCCCCCCCCC` [dodecane]?
A: nonspecific open-channel blocking activity (summary in words) [1]: relatively lacking; inhibition at 10 µM [1]: 10 to 20%; Inactivated Block (shift in V0.5) [2]: ~ 10 mV; inactivation-type inhibition specific to the N-type receptor (summary in words) [2]: able to promote substantial inactivation-type inhibition

Q: With `COC(=O)C=C(C)CCC=C(C)CCC1OC1(C)C` (stereo not drawn) [juvenile hormone III] as the molecule, how does the “nonspecific open-channel blocking activity (summary in words)” value [1] read?
A: relatively lacking

Q: And the “Open/Resting Block (determined at 10 μM)” value [1]?
A: Not active

Q: And the “Inactivated Block (shift in V0.5)” value [2]?
A: ~ 10 mV

Q: And the “inactivation-type inhibition specific to the N-type receptor (summary in words)” value [2]?
A: able to promote substantial inactivation-type inhibition

Q: What does the source list for `CC(C)=CCCC(C)=CCCC(C)=CCBr` [farnesyl bromide]?
A: nonspecific open-channel blocking activity (summary in words) [1]: relatively lacking; inhibition at 10 µM [1]: 20 to 30%; Inactivated Block (shift in V0.5) [2]: ~ 20 mV; inactivation-type inhibition specific to the N-type receptor (summary in words) [2]: able to promote substantial inactivation-type inhibition

Q: What does the source list for `CC(C)=CCCC(C)=CCCC(C)=CCO` [farnesol]?
A: normalized peak height ([1]; 5 μM farnesol): diminished; time to decay of current to the resting level ([1]; 5 μM or 25 μM farnesol): accelerated time to decay to the resting level; position of peak amplitude with respect to depolarization voltage (current/voltage relationship) ([1]; 10 μM farnesol): no dependence; normalized peak height ([1]; 25 μM farnesol): further dramatically diminished; open channel blocking effect on current amplitudes ([1]; 25 μM farnesol, resting potential -100 mV): diminished peak heights; peak currents upon removal of farnesol (reversibility) ([1]; after 5 μM and 25 μM farnesol): regenerated; intercept of inverse time constant for current decay versus farnesol concentration [1, 9]: 7.6; slope of inverse time constant for current decay versus farnesol concentration [1, 9]: 4.8; inhibition at 10 µM [1]: 60%; peak current at -70 mV resting potential normalized to -100 mV [3]: Only the N-type channels show substantially diminished values; open channel blocking effect on current amplitudes (α1E calcium channel [4]): diminished peak heights; Inactivated Block (shift in V0.5) [2]: 10-25 mV; V0.5 ([2]; 100 nM farnesol): -70 mV; time course of development of current amplitude diminution ([2]; 100 nM farnesol, resting potential -70 mV): slower than that obtained at a resting potential of -100 mV; recovery from block ([2]; 100 nM farnesol, resting potential -70 mV, compared with open-channel blockage): much slower; peak current at -70 mV resting potential normalized to -100 mV ([2]; 250 nM farnesol): substantially diminished; reversibility of effect ([2]; 250 nM farnesol, holding -70 mV to test +10 mV): does not appear to be completely reversible; Z slope factor (Boltzman fit) ([2]; 25 μM farnesol): 3.8; shift in V0.5 ([2]; 25 μM farnesol): about 20 mV; V0.5 (resting potential that diminishes peak currents to 1/2) ([2]; 25 μM farnesol present, mean values): -70 mV; Vh (Boltzman fit of steady state inactivation) ([2]; 25 μM farnesol, test potential +20 mV): -68.7 mV; Vh (Boltzman fit of steady state inactivation) ([2]; Wash, after 25 μM farnesol): -56.5 mV; Z slope factor (Boltzman fit) ([2]; Wash, after 25 μM farnesol): 4.0; activity at 25 µM ([2]; read-out: peak current value (normalized to -100 mV resting potential)): 50%; activity at 25 µM ([2]; read-out: peak value as % of base value (normalized to -100 mV resting potential)): 80%; peak current at -70 mV resting potential normalized to -100 mV (α1E calcium channel [5]): Only the N-type channels show substantially diminished values; peak current at -70 mV resting potential normalized to -100 mV [6]: Only the N-type channels show substantially diminished values; open channel blocking effect on current amplitudes [7]: diminished peak heights; calcium-channel blocking, open channel blockage, channel preference (L-type receptors): preference for inhibition of L-type receptors; channel type preference of open channel block [8]: preferentially inhibited; open channel blocking effect on current amplitudes [8]: diminished peak heights

Q: Which “Open/Resting Block (determined at 10 μM)” value [1] does the source give for `CC(C)=CCCC(C)=CCCC(C)=CCOP(=O)(O)OP(=O)(O)O` [farnesyl pyrophosphate] here?
A: Not active

Q: With `CC(C)CCCC(C)CCCC(C)CCCC(C)C` (stereo not drawn) as the molecule, how does the “nonspecific open-channel blocking activity (summary in words)” value [1] read?
A: relatively lacking

Q: What about the “Open/Resting Block (determined at 10 μM)” value [1] of the same molecule?
A: < 10%

Q: And the “Inactivated Block (shift in V0.5)” value [2]?
A: ~ 10 mV

Q: What about the “inactivation-type inhibition specific to the N-type receptor (summary in words)” value [2] of the same molecule?
A: able to promote substantial inactivation-type inhibition

Q: Which results are given for `CCCCCCCCCCN` [decylamine]?
A: inhibition at 10 µM [1]: > 80%; Inactivated Block (shift in V0.5) [2]: ~ 10 mV

Q: For `CCCCCCCCCCCCN` [dodecylamine], which inhibition at 10 µM [1] is on record?
A: 90 to 100%

Q: What about the “Inactivated Block (shift in V0.5)” value [2] of the same molecule?
A: ~ 10 mV

Q: For `CC(=O)OCC=C(C)CCC=C(C)CCC=C(C)C` [farnesyl acetate], which inhibition at 10 µM [1] is on record?
A: 90 to 100%

Q: And the “Inactivated Block (shift in V0.5)” value [2]?
A: ~ 20 mV
